Bounds are passed on as bounds.

Usually Papp stands for the rate of passage across a membrane or cell layer, normalised by area and donor concentration. Read a low Papp as slow passage. A word on the efflux ratio: it is a quotient of directional permeabilities that is used to spot active efflux.

The subject of series [1] is 3D intestinal tissue. To be noted: 3D intestine, apical to basal direction.
The nature of another series: in vitro. The note with it: human.
The target in series [2] is T1, P-gp (Homo sapiens, UniProt P08183). Put plainly: in vitro. The note with it: Efflux ratio (B to A)/(A to B).
In series [3] the test system is prostaglandin E2 secretion. Put plainly: Prostaglandin E2 secretion, 3D intestinal tissue. The series is classed as cell-based, human. The note with it: all doses, 24-hr treatment.
For the next series, the target named is CYP2C9 (Homo sapiens, UniProt P11712).
Another series concerns the target T2, BCRP (Homo sapiens, UniProt Q9UNQ0).
T2 sequence (Q9UNQ0 1-655): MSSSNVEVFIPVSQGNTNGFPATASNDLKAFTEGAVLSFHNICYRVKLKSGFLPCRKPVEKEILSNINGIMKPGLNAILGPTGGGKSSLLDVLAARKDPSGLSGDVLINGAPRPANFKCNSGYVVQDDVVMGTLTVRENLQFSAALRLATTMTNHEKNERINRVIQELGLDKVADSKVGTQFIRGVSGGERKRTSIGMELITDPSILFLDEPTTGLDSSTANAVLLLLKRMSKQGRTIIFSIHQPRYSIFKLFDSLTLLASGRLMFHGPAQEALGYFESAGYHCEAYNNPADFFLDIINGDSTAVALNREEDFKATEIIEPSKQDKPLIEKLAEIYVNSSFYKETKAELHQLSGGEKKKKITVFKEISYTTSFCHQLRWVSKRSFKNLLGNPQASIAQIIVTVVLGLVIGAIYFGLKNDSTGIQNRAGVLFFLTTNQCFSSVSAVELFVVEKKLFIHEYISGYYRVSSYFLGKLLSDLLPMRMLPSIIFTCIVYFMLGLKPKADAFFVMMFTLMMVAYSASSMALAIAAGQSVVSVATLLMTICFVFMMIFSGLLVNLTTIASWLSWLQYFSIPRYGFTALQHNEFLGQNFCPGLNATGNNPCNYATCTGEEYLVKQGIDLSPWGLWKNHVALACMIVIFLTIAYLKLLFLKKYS
Put plainly: in vitro. To be noted: Efflux ratio (B to A)/(A to B), 3D intestinal tissue, dual inhibition with Ko143 and zosuquidar.

Series [4] deals with T1, P-gp. The note with it: 3D intestinal tissue.
For another series, the system named is 2D Caco-2 monolayers. The note with it: 2D Caco-2 model.
The next series has as its system 3D Caco-2 tissues. To be noted: 3D Caco-2 model.
Series [5] concerns 3D intestinal tissue. Kind of series: LDH release after toxicant treatment, 3D intestinal tissue. The series is classed as cell-based, human. To be noted: TNF-α for 24 hr. (In general: Release of lactate dehydrogenase indicates damage to the cell membrane.)
For series [6], the system named is 3D intestinal tissue. The series is classed as cell-based, human. The note with it: 24-hr treatment.
For series [7], the system named is TNF-α/nuclear factor (NF)-κB pathway. Put plainly: Gene expression of TNF-α/NF-κB pathway targets, 3D intestinal tissue. The series is classed as cell-based, human. The note with it: TNF-α for 24 hr.

T1 sequence (P08183 whole entry): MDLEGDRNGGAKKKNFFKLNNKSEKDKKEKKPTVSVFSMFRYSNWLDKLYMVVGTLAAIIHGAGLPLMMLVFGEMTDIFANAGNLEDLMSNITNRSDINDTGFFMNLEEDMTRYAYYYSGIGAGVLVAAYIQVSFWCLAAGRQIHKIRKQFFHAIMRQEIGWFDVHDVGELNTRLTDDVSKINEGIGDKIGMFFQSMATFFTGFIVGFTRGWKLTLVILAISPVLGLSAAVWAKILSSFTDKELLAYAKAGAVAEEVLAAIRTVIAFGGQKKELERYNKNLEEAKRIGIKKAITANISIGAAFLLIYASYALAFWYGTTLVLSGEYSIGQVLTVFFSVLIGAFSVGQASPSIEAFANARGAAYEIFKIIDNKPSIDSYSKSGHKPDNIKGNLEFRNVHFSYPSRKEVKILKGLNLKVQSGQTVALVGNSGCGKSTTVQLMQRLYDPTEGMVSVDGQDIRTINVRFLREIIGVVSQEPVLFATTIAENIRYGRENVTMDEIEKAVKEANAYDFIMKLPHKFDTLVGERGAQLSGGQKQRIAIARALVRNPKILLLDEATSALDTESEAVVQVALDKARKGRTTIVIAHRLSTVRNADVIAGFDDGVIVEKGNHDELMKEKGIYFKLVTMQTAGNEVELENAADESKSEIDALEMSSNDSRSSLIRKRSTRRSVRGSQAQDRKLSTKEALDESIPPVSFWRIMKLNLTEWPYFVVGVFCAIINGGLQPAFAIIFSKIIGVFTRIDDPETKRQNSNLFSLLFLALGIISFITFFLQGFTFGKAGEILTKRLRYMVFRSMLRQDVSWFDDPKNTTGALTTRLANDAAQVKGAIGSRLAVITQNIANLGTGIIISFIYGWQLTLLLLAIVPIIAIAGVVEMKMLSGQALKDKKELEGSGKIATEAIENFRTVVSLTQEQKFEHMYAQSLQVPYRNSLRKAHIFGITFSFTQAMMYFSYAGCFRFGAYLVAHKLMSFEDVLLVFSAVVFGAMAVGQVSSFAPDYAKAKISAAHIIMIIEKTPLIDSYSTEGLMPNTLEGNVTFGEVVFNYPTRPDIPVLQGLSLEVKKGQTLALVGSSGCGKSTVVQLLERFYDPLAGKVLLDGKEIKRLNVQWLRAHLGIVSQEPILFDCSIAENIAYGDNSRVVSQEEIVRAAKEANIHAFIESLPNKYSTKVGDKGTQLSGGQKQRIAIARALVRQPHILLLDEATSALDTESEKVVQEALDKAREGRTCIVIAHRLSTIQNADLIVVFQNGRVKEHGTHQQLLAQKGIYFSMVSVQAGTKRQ
Chain of CYP2C9 (P11712 whole entry): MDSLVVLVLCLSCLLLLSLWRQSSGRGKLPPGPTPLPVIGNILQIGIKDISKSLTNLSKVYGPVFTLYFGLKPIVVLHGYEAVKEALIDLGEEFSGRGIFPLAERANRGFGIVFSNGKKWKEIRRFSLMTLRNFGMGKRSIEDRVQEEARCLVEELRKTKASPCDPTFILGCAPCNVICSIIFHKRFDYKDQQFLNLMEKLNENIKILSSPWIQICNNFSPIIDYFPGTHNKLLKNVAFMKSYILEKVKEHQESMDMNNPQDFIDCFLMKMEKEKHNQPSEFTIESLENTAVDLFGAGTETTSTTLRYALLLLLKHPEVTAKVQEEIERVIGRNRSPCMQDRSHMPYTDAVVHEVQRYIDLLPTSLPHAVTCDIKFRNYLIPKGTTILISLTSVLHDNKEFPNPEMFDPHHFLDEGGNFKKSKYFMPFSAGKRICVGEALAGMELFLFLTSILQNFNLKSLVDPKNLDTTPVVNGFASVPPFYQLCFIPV

With `C[C@H]1O[C@@H](O[C@H]2[C@@H](O)C[C@H](O[C@H]3[C@@H](O)C[C@H](O[C@H]4CC[C@@]5(C)[C@H](CC[C@@H]6[C@@H]5C[C@@H](O)[C@]5(C)[C@@H](C7=CC(=O)OC7)CC[C@]65O)C4)O[C@@H]3C)O[C@@H]2C)C[C@H](O)[C@@H]1O` [digoxin], in the series on 3D intestinal tissue [1], the Permeability class entry was “moderate”. This compound also registered a Papp in “in vitro” of 8.53 ± 2.02 ×10⁻⁶ cm/s. In addition, the efflux ratio at P-gp [2] was > 2.
For the compound `COc1ccc2c(c1)c(CC(=O)O)c(C)n2C(=O)c1ccc(Cl)cc1` [indomethacin], the “Prostaglandin E2 secretion” value in series [3] was “inhibition of prostaglandin E2 secretion”.
As for `CC(=O)N1CCN(c2ccc(OCC3COC(Cn4ccnc4)(c4ccc(Cl)cc4Cl)O3)cc2)CC1` (centres unmarked) [ketoconazole], the “Effect on CYP3A4 activity (midazolam metabolite formation)” value in the series with CYP3A4 is recorded as “specific inhibition”.
`O=C1c2c(O)ccc(O)c2C(=O)c2c(NCCNCCO)ccc(NCCNCCO)c21` [mitoxantrone]: the apparent permeability coefficient (Papp) in “in vitro” is 0.2 ± 0.03 ×10⁻⁶ cm/s.
As for `CC(C)NCC(O)COc1cccc2ccccc12` (centres unmarked) [propranolol], the Permeability class result with 3D intestinal tissue [1] is on record as “high”. In the series “in vitro”, this compound registered an apparent permeability coefficient (Papp) of 14.8 ± 1.96 ×10⁻⁶ cm/s.
On to `Nc1ccc(S(=O)(=O)Nc2ccnn2-c2ccccc2)cc1` [sulfaphenazole], for which the “Effect on CYP2C9 activity (luminogenic P450 substrate conversion)” value at CYP2C9 is on record as “significantly inhibited”.
As for `CC[C@@]1(O)C(=O)OCc2c1cc1n(c2=O)Cc2cc3c(CN(C)C)c(O)ccc3nc2-1` [topotecan], the Permeability class entry in the series with 3D intestinal tissue [1] was “moderate”. In the series “in vitro”, this compound returned an apparent permeability coefficient (Papp) of 3.1 ± 0.63 ×10⁻⁶ cm/s. The efflux ratio on BCRP came to 1.4.
As for `O[C@@H](COc1cccc2ncccc12)CN1CCN([C@@H]2c3ccccc3[C@@H]3[C@H](c4ccccc42)C3(F)F)CC1` [zosuquidar], the “Effect on B to A transport of digoxin” value at P-gp [4] is on record as “decreased the rate of B to A transport”.
As to lucifer yellow, the apparent permeability (Papp) amounted to 0.45 ± 1.5 ×10⁻⁶ cm/s with 3D intestinal tissue [1], 0.46 ± 0.25 ×10⁻⁶ cm/s in the series on 2D Caco-2 monolayers and 1.05 ± 0.1 ×10⁻⁶ cm/s in the series with 3D Caco-2 tissues. The compound further showed a Permeability (Papp) with IMF tissue alone of 163 ± 29 ×10⁻⁶ cm/s.
Consider tumor necrosis factor alpha [TNF-α], for which the LDH release entry with 3D intestinal tissue [5] is reported as “significant increase”. Moreover, the “Epithelial morphology (histology)” value with 3D intestinal tissue [6] is “altered the epithelial morphology”. In addition, the “Gene expression of IL-6, IL-8, CCL2, CXCL10, ICAM1, and TNF-α” value in [7] is “upregulated”.

The values are drawn from PMC6135981 (iScience, 2018).
